Measurements as given in PubChem BioAssay AID248 (DTP/NCI, 2004).
Values joined by “and” are separate entries in the source; they are usually repeats but may differ in a detail not shown here. Equal values may be shown once. Inconclusive results and toxic doses are left out.

Test system: L1210 leukemia ip in BDF1 mice, survival T/C
Assay: NCI In Vivo Anticancer Drug Screen. Data for tumor model L1210 Leukemia (intraperitoneal) in B6D2F1 (BDF1) mice
Settings: endpoint: mean survival time, higher = longer survival
Summary of the method: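 In this screen, tumor-bearing mice given compound are compared to those given vehicle, and their survival values are reported as a treated-to-control quotient.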

[1] = dose: 100.0 mg/kg/injection, schedule: Q04DX003 (ip), vehicle: saline
[2] = dose: 200.0 mg/kg/injection, schedule: Q04DX003 (ip), vehicle: saline
[3] = dose: 400.0 mg/kg/injection, schedule: Q04DX003 (ip), vehicle: saline
[4] = dose: 100.0 mg/kg/injection, schedule: Q01DX001 (ip), vehicle: saline
[5] = dose: 200.0 mg/kg/injection, schedule: Q01DX001 (ip), vehicle: saline
[6] = dose: 400.0 mg/kg/injection, schedule: Q01DX001 (ip), vehicle: saline
[7] = dose: 50.0 mg/kg/injection, schedule: Q01DX009 (ip), vehicle: saline with Tween-80
[8] = dose: 100.0 mg/kg/injection, schedule: Q01DX009 (ip), vehicle: saline with Tween-80
[9] = dose: 100.0 mg/kg/injection, schedule: Q04DX003 (ip), vehicle: saline with Tween-80
[10] = dose: 200.0 mg/kg/injection, schedule: Q01DX009 (ip), vehicle: saline with Tween-80
[11] = dose: 200.0 mg/kg/injection, schedule: Q04DX003 (ip), vehicle: saline with Tween-80
[12] = dose: 100.0 mg/kg/injection, schedule: Q01DX009 (ip), vehicle: Klucel (hydroxypropylcellulose) (HPC)
[13] = dose: 100.0 mg/kg/injection, schedule: Q04DX002 (ip), vehicle: Klucel (hydroxypropylcellulose) (HPC)
[14] = dose: 200.0 mg/kg/injection, schedule: Q01DX009 (ip), vehicle: Klucel (hydroxypropylcellulose) (HPC)
[15] = dose: 200.0 mg/kg/injection, schedule: Q04DX002 (ip), vehicle: Klucel (hydroxypropylcellulose) (HPC)
[16] = dose: 400.0 mg/kg/injection, schedule: Q01DX009 (ip), vehicle: Klucel (hydroxypropylcellulose) (HPC)
[17] = dose: 400.0 mg/kg/injection, schedule: Q04DX002 (ip), vehicle: Klucel (hydroxypropylcellulose) (HPC)
[18] = dose: 400.0 mg/kg/injection, schedule: Q01DX009 (ip), vehicle: saline with Tween-80
[19] = dose: 400.0 mg/kg/injection, schedule: Q04DX003 (ip), vehicle: saline with Tween-80
[20] = dose: 100.0 mg/kg/injection, schedule: Q04DX003 (ip), vehicle: Klucel (hydroxypropylcellulose) (HPC)
[21] = dose: 200.0 mg/kg/injection, schedule: Q04DX003 (ip), vehicle: Klucel (hydroxypropylcellulose) (HPC)
[22] = dose: 400.0 mg/kg/injection, schedule: Q04DX003 (ip), vehicle: Klucel (hydroxypropylcellulose) (HPC)

## CC[N+](CC)(CC)Cc1ccccc1
dose: 6.25 mg/kg/injection, schedule: Q01DX009 (ip), vehicle: Klucel (hydroxypropylcellulose) (HPC)
  T/C: 104 % of control
dose: 6.25 mg/kg/injection, schedule: Q04DX003 (ip), vehicle: saline
  T/C: 113 % of control
dose: 12.5 mg/kg/injection, schedule: Q01DX009 (ip), vehicle: Klucel (hydroxypropylcellulose) (HPC)
  T/C: 107 % of control
dose: 12.5 mg/kg/injection, schedule: Q04DX003 (ip), vehicle: saline
  T/C: 97 % of control
dose: 25.0 mg/kg/injection, schedule: Q01DX001 (ip), vehicle: saline
  T/C: 96 % of control and 100 % of control
dose: 25.0 mg/kg/injection, schedule: Q01DX009 (ip), vehicle: Klucel (hydroxypropylcellulose) (HPC)
  T/C: 98 % of control and 100 % of control
dose: 25.0 mg/kg/injection, schedule: Q04DX003 (ip), vehicle: saline
  T/C: 97 % of control and 100 % of control
dose: 50.0 mg/kg/injection, schedule: Q01DX001 (ip), vehicle: saline
  T/C: 98 % of control and 102 % of control
dose: 50.0 mg/kg/injection, schedule: Q04DX003 (ip), vehicle: saline
  T/C: 98 % of control

## CCNC(=O)N1CC2CCC(C1)N2C
[1]
  T/C: 113 % of control
[2]
  T/C: 106 % of control
[3]
  T/C: 98 % of control

## CC1CCC2(CC1=O)C(C)CC(=O)C2C(C)C (centres undefined)
dose: 100.0 mg/kg/injection, schedule: Q01DX009 (ip), vehicle: saline
  T/C: 94 % of control
dose: 200.0 mg/kg/injection, schedule: Q01DX009 (ip), vehicle: saline
  T/C: 102 % of control
dose: 400.0 mg/kg/injection, schedule: Q01DX009 (ip), vehicle: saline
  T/C: 98 % of control

## CCOCCOC(=O)c1ccc(C#N)cc1
[4]
  T/C: 100 % of control
[5]
  T/C: 97 % of control
[6]
  T/C: 97 % of control

## CCCCCCCCCCCCOc1ccccc1
[7]
  T/C: 97 % of control
[8]
  T/C: 92 % of control
[9]
  T/C: 88 % of control
[10]
  T/C: 109 % of control
[11]
  T/C: 92 % of control

## COc1cccc(CC(C(=O)c2ccc(O)cc2)c2ccccc2)c1 (centres undefined)
[4]
  T/C: 97 % of control
[5]
  T/C: 97 % of control
[6]
  T/C: 101 % of control

## CCOC(=O)C/C(C)=N/N=C(\CCOC)COC
dose: 100.0 mg/kg/injection, schedule: Q01DX001 (ip), vehicle: carboxymethylcellulose (CMC)
  T/C: 87 % of control
dose: 200.0 mg/kg/injection, schedule: Q01DX001 (ip), vehicle: carboxymethylcellulose (CMC)
  T/C: 103 % of control
dose: 400.0 mg/kg/injection, schedule: Q01DX001 (ip), vehicle: carboxymethylcellulose (CMC)
  T/C: 103 % of control

## Cc1c(NCO)c(=O)n(-c2ccccc2)n1C
[1]
  T/C: 118 % of control
[2]
  T/C: 94 % of control
[3]
  T/C: 112 % of control

## c1cc2c3c(ccc4c3c1CCC4)CCC2
dose: 100.0 mg/kg/injection, schedule: Q04DX002 (ip), vehicle: gum acacia
  T/C: 91 % of control
dose: 200.0 mg/kg/injection, schedule: Q04DX002 (ip), vehicle: gum acacia
  T/C: 100 % of control
dose: 400.0 mg/kg/injection, schedule: Q04DX002 (ip), vehicle: gum acacia
  T/C: 95 % of control

## COc1cccc(C2NC(=O)CCC2[N+](=O)[O-])c1OC (centres undefined)
dose: 100.0 mg/kg/injection, schedule: Q04DX002 (ip), vehicle: saline with Tween-80
  T/C: 105 % of control
dose: 200.0 mg/kg/injection, schedule: Q04DX002 (ip), vehicle: saline with Tween-80
  T/C: 102 % of control
dose: 400.0 mg/kg/injection, schedule: Q04DX002 (ip), vehicle: saline with Tween-80
  T/C: 94 % of control

## Cc1[nH]c(=O)n(C)c(=O)c1C
dose: 100.0 mg/kg/injection, schedule: Q01DX001 (ip), vehicle: Klucel (hydroxypropylcellulose) (HPC)
  T/C: 109 % of control
dose: 200.0 mg/kg/injection, schedule: Q01DX001 (ip), vehicle: Klucel (hydroxypropylcellulose) (HPC)
  T/C: 106 % of control
dose: 400.0 mg/kg/injection, schedule: Q01DX001 (ip), vehicle: Klucel (hydroxypropylcellulose) (HPC)
  T/C: 104 % of control

## CC(=O)Nc1c(C)c(NC(C)=O)c(C)c(NC(C)=O)c1C
dose: 75.0 mg/kg/injection, schedule: Q01DX001 (ip), vehicle: Klucel (hydroxypropylcellulose) (HPC)
  T/C: 90 % of control
dose: 75.0 mg/kg/injection, schedule: Q01DX009 (ip), vehicle: Klucel (hydroxypropylcellulose) (HPC)
  T/C: 94 % of control
dose: 150.0 mg/kg/injection, schedule: Q01DX001 (ip), vehicle: Klucel (hydroxypropylcellulose) (HPC)
  T/C: 101 % of control
dose: 300.0 mg/kg/injection, schedule: Q01DX001 (ip), vehicle: Klucel (hydroxypropylcellulose) (HPC)
  T/C: 92 % of control

## NC1(C(=O)O)CCCC2CCCCC21 (centres undefined)
[12]
  T/C: 100 % of control
[13]
  T/C: 93 % of control
[14]
  T/C: 96 % of control
[15]
  T/C: 93 % of control
[16]
  T/C: 91 % of control
[17]
  T/C: 96 % of control

## COc1ccc(CCNC(=O)CCN2C(=O)c3ccccc3C2=O)cc1OC
[8]
  T/C: 115 % of control
[9]
  T/C: 97 % of control
[10]
  T/C: 115 % of control
[11]
  T/C: 100 % of control
[18]
  T/C: 113 % of control
[19]
  T/C: 112 % of control

## CCc1nc(N)ncc1-c1ccc([N+](=O)[O-])cc1O
[13]
  T/C: 97 % of control
[15]
  T/C: 100 % of control
[17]
  T/C: 90 % of control

## C[N+]1=CN(c2ccc(Cl)cc2)Cc2cc(Cl)ccc21
[12]
  T/C: 95 % of control
[20]
  T/C: 105 % of control
[14]
  T/C: 106 % of control
[21]
  T/C: 91 % of control
[16]
  T/C: 107 % of control
[22]
  T/C: 93 % of control

## Cc1ccc(C2OC2(C(=O)c2ccccc2)c2ccccc2)cc1 (centres undefined)
[12]
  T/C: 106 % of control
[20]
  T/C: 96 % of control
[14]
  T/C: 108 % of control
[21]
  T/C: 104 % of control
[16]
  T/C: 92 % of control
[22]
  T/C: 98 % of control

## O=C(Nc1ccc(I)cc1)Nc1cc(C(F)(F)F)ccc1Cl
[12]
  T/C: 100 % of control
[14]
  T/C: 93 % of control
[16]
  T/C: 88 % of control

## O=C(NNC(=O)NC1OCC(O)C(O)C1O)Nc1ccccc1 (centres undefined)
[8]
  T/C: 97 % of control
[10]
  T/C: 100 % of control
[18]
  T/C: 97 % of control

## OC/C=C\C1(O)CCCCC1
dose: 75.0 mg/kg/injection, schedule: Q01DX001 (ip), vehicle: saline
  T/C: 98 % of control
dose: 150.0 mg/kg/injection, schedule: Q01DX001 (ip), vehicle: saline
  T/C: 96 % of control

## C/C=C/C(=O)Nc1cccc(C)c1C
[12]
  T/C: 93 % of control and 95 % of control
[14]
  T/C: 100 % of control
[16]
  T/C: 92 % of control

## C=CCC/C(=C/C(=O)OCC)OCC=C
[7]
  T/C: 107 % of control
[8]
  T/C: 114 % of control

## CSc1cc(C)c(O)c(CO)c1
dose: 100.0 mg/kg/injection, schedule: Q01DX009 (ip), vehicle: other
  T/C: 92 % of control
dose: 200.0 mg/kg/injection, schedule: Q01DX009 (ip), vehicle: other
  T/C: 97 % of control
dose: 400.0 mg/kg/injection, schedule: Q01DX009 (ip), vehicle: other
  T/C: 92 % of control

## O=Cc1ccc(C(=O)O)cc1
[9]
  T/C: 98 % of control
[11]
  T/C: 96 % of control
[19]
  T/C: 95 % of control

## O=C(/C(=C\c1ccccc1)c1ccccc1)c1ccc(O)cc1
[4]
  T/C: 98 % of control
[5]
  T/C: 101 % of control
[6]
  T/C: 101 % of control

## Cn1cnc([N+](=O)[O-])c1[Se]c1nc(N)nc2nc[nH]c12
dose: 25.0 mg/kg/injection, schedule: Q01DX005 (ip), vehicle: other
  T/C: 159 % of control
dose: 50.0 mg/kg/injection, schedule: Q01DX005 (ip), vehicle: other
  T/C: 92 % of control

## O=C(Nc1ccccc1)OCCCC1CCCC1
dose: 100.0 mg/kg/injection, schedule: Q01DX009 (sc), vehicle: olive oil, sesame oil, peanut oil
  T/C: 108 % of control
dose: 200.0 mg/kg/injection, schedule: Q01DX009 (sc), vehicle: olive oil, sesame oil, peanut oil
  T/C: 105 % of control
dose: 400.0 mg/kg/injection, schedule: Q01DX009 (sc), vehicle: olive oil, sesame oil, peanut oil
  T/C: 100 % of control
